Measured values from patent publication US20160058829A1, “ANTI-FIBROTIC PEPTIDES AND THEIR USE IN METHODS FOR TREATING DISEASES AND DISORDERS CHARACTERIZED BY FIBROSIS” (Thrasos Innovation, Inc., priority 2011, published 2016).
Positions of bridges follow the written chain, without caps; N, C: chain ends.

How the values were obtained:
[1] = test system: Alk-3 deleted mice and littermate control mice, IRI; assay: IRI in Alk-3 deleted (γGT-Cre; Alk3 flox/flox) and control mice; type: in vivo; conditions: for renal injury (tubular necrosis), IRI: THR-123 orally 5 mg/kg/day
Protocol: FIG. 76A-FIG. 76T THR-123 acts on tubule Alk3 as a receptor in kidney disease models. FIG. 76A-FIG. 76D, The effect of THR-123 on the IRI model kidney injury in Alk3^flox/flox and […]GTCre; Alk3^flox/flox mice. After ischemia reperfusion injury the mice were given THR-123 orally (5 mg/kg/day) till the day of sacrifice. FIG. 76A-FIG. 76C, the representative H&E staining picture of indicated group of mice are shown. FIG. 76D. Percentage renal tubular necrosis in IRI. Ten fields in each group were analyzed. Data are shown as mean±s.e.m. in the graph. FIG. 76E-FIG. 76T, The effect of THR-123 on the NTN model kidney injury in Alk3^flox/flox and gGTCre; Alk3^flox/flox mice. Six weeks after NTN was introduced in the indicated groups of mice, mice were treated with PBS or THR-123 orally. FIG. 76E-FIG. 76H, the representative MTS staining picture of indicated group of mice are shown. FIG. 76I, Morphometric analyses from 9 weeks of NTN models in indicated groups. FIG. 76J-FIG. 76N, Macrophage accumulation analysis in the kidney of NTN model in Alk3^flox/flox and gGTCre; Alk3^flox/flox mice. FIG. 76J-FIG. 76M, Mac-1 immunofluorescence study of indicated groups of mice. FIG. 76N, The number of macrophages per field of view (×400 magnification) was assessed by counting positively labeled cells in 5 random fields of view per slide, with 5 slides per experimental group. Data are shown as mean±s.e.m. in the graph. FIG. 76O-FIG. 76S, EMT analysis, FIG. 76O-FIG. 76R, E-cadherin/FSP1 immunolabeling of kidney in NTN-induced Alk3^flox/flox and GTCre; Alk3^flox/flox mice treated with either PBS or THR-123. FIG. 76S. Percent of E-cadherin/FSP1 double positive tubule. 500 tubules per slide, 5 slides per experimental group were analyzed. Data are expressed as mean±s.e.m. in the graph. FIG. 76T, Blood urea nitrogen measurement in 6 and 9 weeks of NTN in indicated groups of mice (all n=4).
Ischemia reperfusion injury (IRI) was induced by clamping of the left renal pedicle for 25 minutes. After ischemia reperfusion injury the mice were given THR-123 orally (5 mg/kg/day) or PBS till the day of sacrifice. FIG. 77A-FIG. 77C. Mac-1 immunofluorescence studies in the indicated groups. FIG. 77D. The number of macrophages per field of view (×400 magnification) was assessed by counting positively labeled cells in 5 random fields of view per slide, with 5 slides per experimental group.
Ischemia reperfusion injury (IRI) was induced by clamping of the left renal pedicle for 25 minutes. After ischemia reperfusion injury the mice were given THR-123 orally (5 mg/kg/day) or PBS till the day of sacrifice. FIG. 78A-FIG. 78C. Tubule cell apoptosis was analyzed in frozen kidney sections of indicated groups of animals by TUNEL staining. FIG. 78D. Quantification of TUNEL positive tubule cells. The number of TUNEL positive tubules per field of view (×200 magnification) was assessed by counting positively labeled cells in 5 random fields of view per slide, with 5 slides per experimental group.
THR-123 binds to Alk-3 receptor and induced actions that mimic BMP7 (vide supra). […] To functionally validate the target of THR-123 in exerting such reno-protective activity in mice, the efficacy of THR-123 in the Alk-3 deleted mice subjected to renal injury was tested (FIG. 42 K). The Alk-3 deleted mice and their littermate (control) mice were subjected to IRI.
Alk-3 flox mice are provided by Dr. Yuji Mishina, National Institutes of Health with material transfer agreements. γGT-Cre mice are provided from Dr. Eric Neilson, Vanderbilt University Medical Center. NTN is induced by the method described above.

[2] = test system: mice with ischemia reperfusion injury; assay: Ischemia reperfusion injury (IRI) in mice; type: in vivo
Protocol: FIG. 55A-FIG. 55D The effect of THR-123 on acute tubular damage induced by ischemia reperfusion injury. Ischemia reperfusion injury (IRI) was induced by the clamping of the left renal pedicle for 25 minutes. After ischemia reperfusion injury the mice were given THR-123 orally (5 mg/kg/day) or PBS till the day of sacrifice. […] Arrows indicate necrotic tubules. FIG. 55B. […] FIG. 55C. […] Ten fields in each group were analyzed. FIG. 55D. Blood urea nitrogen estimated by quantichrome colorimetric urea assay at day 7 IRI. No difference in the all groups. PBS group (n=5) and THR-123-treated group (n=4) are analyzed. Data are shown as mean±s.e.m. in the graph.
7B16 mice are used in this study. Mice are anesthetized with the mixture of ketamine and xylazine and the left renal pedicle clamped for 25 minutes. At same day after surgery, THR-123 (p.o. 5 mg/Kg/day) or vehicle treatments are started. At 7 days after surgery, mice are sacrificed.

[3] = test system: BALB/c mice with bleomycin-induced lung fibrosis; assay: Bleomycin (plus cyclophosphamide)-induced pulmonary fibrosis in BALB/c mice
Protocol: The endpoints in this model are survival and histomorphometric evaluation of the extent of fibrosis in lung tissue.
The test compound, in lyophilized form, is dissolved in 50 mM acetate buffer, pH 4.5 at an initial concentration of 20 mg/mL. The stock solution is then divided into several one mL aliquots, snap frozen and stored at −70° C. until used. On the Day of use, each aliquot is thawed and further diluted to a required working concentration in PBS, pH 7.5. The working concentration is determined from the intended dose (mg/kg body weight) and the oral administration volume.
In addition, the mice are administered a single intraperitoneal injection of cyclophosphamide (150 mg/kg of body weight). The animals challenged with Bleomycin plus Cyclophosphamide are separated into two groups, each group having a minimum of 6 animals. The vehicle treated group (Group 1) receives daily oral doses of PBS, pH 7.5. […] These treatments are continued for up to 16 days after Bleomycin administration. A third control group of mice receive intra-tracheal PBS rather than Bleomycine and Cyclophosphamide.
After completion of the in-life study, the animals are euthanized (methoxyflurane anesthesia), and the lungs are perfused with ice cold Hank's balanced salt solution to remove blood-born cells, and then inflated under a constant pressure of 30 cm H2O with 10% normal buffered formalin (NBF). Lungs are ligated at the trachea, removed en bloc, and immersed in NBF for 24 hr. After which, tissue samples are changed to 70% alcohol before paraffin embedding, followed by sectioning and staining with hematoxylin, eosin and Masson's Trichrome. Sections are analyzed microscopically to evaluate pulmonary fibrosis by determining the degree of collagen accumulation (Masson's Trichrome).
Pulmonary fibrosis was evaluated histomorphometricly by determining the percentage of field with collagen accumulation lung sections stained with Masson's Trichrome.

## (H)-CYFDDSSNVLCKKYRS-(OH) (H-CYFDDSSNVLCKKYRS-OH; disulfide 1-11; SMILES CC(C)C[C@@H]1NC(=O)[C@H](C(C)C)NC(=O)[C@H](CC(N)=O)NC(=O)[C@H](CO)NC(=O)[C@H](CO)NC(=O)[C@H](CC(=O)O)NC(=O)[C@H](CC(=O)O)NC(=O)[C@H](Cc2ccccc2)NC(=O)[C@H](Cc2ccc(O)cc2)NC(=O)[C@@H](N)CSSC[C@@H](C(=O)N[C@@H](CCCCN)C(=O)N[C@@H](CCCCN)C(=O)N[C@@H](Cc2ccc(O)cc2)C(=O)N[C@@H](CCCNC(=N)N)C(=O)N[C@@H](CO)C(=O)O)NC1=O) [SEQ ID NO: 1]
[1]; Alk-3 deleted mice
  macrophage accumulation, IRI: does not inhibit macrophage accumulation
  tubular apoptosis, IRI: does not inhibit apoptosis
  renal injury (tubular necrosis), IRI: does not exhibit therapeutic effect
[1]; control mice
  macrophage accumulation, IRI: reduction in macrophage accumulation
  tubular apoptosis, IRI: decreased tubular apoptosis
  renal injury (tubular necrosis), IRI: inhibited renal injury
[2]; THR-123 orally 5 mg/kg/day versus PBS
  blood urea nitrogen at day 7 IRI: No difference
[2]; THR-123 orally 5 mg/kg/day, versus PBS, day 7
  renal tubular necrosis / tubular damage: significantly less tubular damage
[3]; daily oral dose of 5 mg/kg
  pulmonary fibrosis (histomorphometric analysis of lung tissue): significantly less pulmonary fibrosis
[3]; daily oral dose of 5 mg/kg, vehicle 100% mortality by 8 days
  survival rate at 16 days: 80%
[3]; day 16, oral, vehicle 31% at ten days
  lung fibrosis score (percentage of field with collagen accumulation, Masson's Trichrome): 16%
[3]; oral
  survival by day 16: survival of all mice
